Common to all, as to type: cell-based
Data set [1] concerns SKOV3 ovarian cancer cells. In words: MTT antiproliferative assay on SKOV3 cells in monolayer (2D). The settings on record: for IC50: SKOV3 cells cultured in monolayer, 48 h exposure.
Data set [2] relates to spheroids of SKOV3 ovarian cancer cells. In words: Spheroid volume growth after drug and irradiation. The settings on record: 0.7 μM 1 h before irradiation at 0 Gy or 4 Gy, followed 19 days. How it is done: FIG. 8 includes a schematic overview of experiment. Cells were plated in an ultra-low affinity 96 well plate with a round bottom and allowed to form spheroids for 5 days. […] The medium containing drug was replaced by a drug-free medium after 4 days, then freshly changed twice a week for the rest of the experiment. Diameter of each spheroid was measured two or three times a week for 19 days with Micrometrics SE Premium software. Spheroid volume growth over time. Volume were normalized to day 0. Error bars represent mean±SEM for at least 5 replicates.

The test system of data set [3] is ovarian cancer cells cultivated in a 2D cell arrangement. The experiment in a line: Clonogenic assay for radiosensitizing effect, 2D culture. The settings on record: 0.7 μM 1 h before irradiation at 0, 2, 4 or 6 Gy. How it is done: The radiosensitizing effect was assessed with a clonogenic assay. […] The medium was removed right after irradiation and replaced by a drug-free medium, changed twice a week for the rest of the experiment. Clonogenic assay was stopped when colonies containing at least 50 cells were observed under the microscope. Error bar represent mean±SEM from 3 independent experiments with at least 2 replicates each.

The test system of a further data set is SKOV3 spheroids. The experiment in a line: MTT antiproliferative assay on SKOV3 spheroids. The settings on record: for antiproliferative effect: SKOV3 spheroids; for IC50: SKOV3 spheroids (5 days formation), 48 h exposure. How it is done: Twenty thousand cells were seeded in an ultra-low affinity round bottom 96 well plates and 5 days were allowed for spheroids formation. […] Error bars represent mean±SEM from 3 independent experiments of at least 6 replicates each.
A general note: Tetrazolium assays rely on reduction of a dye to a coloured formazan, in cell work by metabolically active cells.

The next data set relates to NHEJ DNA repair pathway. The experiment in a line: Western blot of DNA repair proteins after irradiation. The conditions noted are these: SKOV3 2D, 0.7 μM 1 h before irradiation at 0 or 2 Gy. How it is done:
Western blot showing expression level of ATM, S1981pATM, DNA-PKcs, S2056pDNA-PKcs, XRCC4, RPA70 and RAD51 in SKOV3 cells cultivated in 2D. Cells were exposed to DMSO or WD at a concentration of 0.7 μM 1 h before undergoing an irradiation at 0 or 2 Gy. Proteins within cells were extracted 1 h, 6 h or 24 h after irradiation. A total of 5 μg of proteins was loaded. Bands intensities were quantified using ImageJ, normalized with GAPDH. Numbers represent expression level compared to non-irradiated cells. NI=Non-irradiated samples.

Another data set has as its system Monolayer SKOV3 cells. The experiment in a line: γ-H2AX / 53BP1 foci immunofluorescence after irradiation. The conditions noted are these: 0.7 μM 1 h before irradiation at 0 or 2 Gy, 6 h, 24 h after irradiation. Here is the method:
Cells were seeded on coverslip at a density of 5×10^4 per mL and exposed to DMSO or WD at a concentration of 0.7 μM 1 h before being irradiated at 0 or 2 Gy. The medium was removed and replaced by a drug-free medium immediately after irradiation. FIG. 6A. Images of immunofluorescence elicited in SKOV3 cells 1 h, 6 h and 24 h after irradiation taken using an Epifluorescence microscope at a magnification of 63×. […] Scale bar=10 μm. […] Values are normalized with non-irradiated cells, exposed to DMSO or WD respectively. […] Values are normalized with non-irradiated cells, exposed to DMSO or WD respectively. All the data are presented as the mean±SEM of at least 60 nuclei. *Significant differences as determined by Student's t-test (p<0.05).

Regarding `CC1=C(CO)C(=O)O[C@@H]([C@@H](C)[C@H]2CC[C@H]3[C@@H]4C[C@H]5O[C@]56[C@@H](O)C=CC(=O)[C@]6(C)[C@H]4CC[C@]23C)C1` [WFA, withaferin A], the IC50 (as a rule, the concentration needed to halve the response being measured) in data set [1] was found to be 4.4 µM; in the data set with SKOV3 spheroids, 23 µM. In data set [2], the “radiosensitization of spheroids (normalized volume)” value is on record as “do not radiosensitize”. In addition, in data set [3], the radiosensitizing effect entry is “have a radiosensitizing effect”. The antiproliferative effect entry in the data set on SKOV3 spheroids is recorded as “significant antiproliferative effect”.

Turning to `CC1=C(C)C(=O)O[C@@H]([C@](C)(O)[C@H]2CC[C@H]3[C@@H]4C[C@H]5O[C@]56[C@@H](O)C=CC(=O)[C@]6(C)[C@H]4CC[C@]23C)C1` [WD, withanolide D], the cytotoxic effect entry in data set [1] (SKOV3 2D, 0.156 to 80 μM, 48 h) is on record as “dose-dependent cytotoxic effect”. For the same molecule, in data set [1], the IC50 was 4.2 µM. In addition, the “radiosensitization of spheroids (normalized volume)” value in data set [2] is reported as “do not radiosensitize”. The radiosensitizing effect entry in data set [3] is listed as “have a radiosensitizing effect”. In the data set on SKOV3 spheroids, the antiproliferative effect result is given as “significant antiproliferative effect” and half-maximal inhibition (IC50) required 16 µM. In addition, in the data set with NHEJ DNA repair pathway, the “mechanism of radiosensitization (expression of ATM, pATM, DNA-PKcs, pDNA-PKcs, XRCC4, RPA70, RAD51)” value is on record as “inhibiting the NHEJ DNA repair pathway”. In addition, in the data set on Monolayer SKOV3 cells, the “DNA DSBs (γ-H2AX and 53BP1 foci) versus DMSO” value was “more DNA DSBs over 24 h than those exposed to DMSO”.

The values are drawn from patent US20220243160A1, “Method and Apparatus for Interrogating Biological Systems” (Arizona Board of Regents on Behalf of the University of …, priority 2019, published 2022).
